From article PMC8070745, “FEN1 Blockade for Platinum Chemo-Sensitization and Synthetic Lethality in Epithelial Ovarian Cancers” (Cancers, 2021)

Key:
[1] = system: POLβ KO A2780cis cells; assay: Clonogenic assay, POLβ KO A2780cis; format: cell-based, human; conditions: vs POLβ proficient A2780cis
Experimental: Clonogenic assay: In the clonogenic assay (colony formation assays), 32 cells/cm2 were seeded in 6-well plates and left at 37°C in a 5% CO2 atmosphere. Cisplatin (5µM) and/or FEN1i (10µM) and/or Importazole (5 µM, Selleckem, S8446 ) were added at the indicated concentrations and the plates were left at 37 °C in a 5% CO 2 atmosphere for 14 days. Later, the plates were washed with PBS, fixed and stained with a crystal violet, acetic acid and methanol solution and colonies were counted. […]

[2] = system: XRCC1 deficient HeLa cells; assay: FEN1 inhibitor cytotoxicity, XRCC1 deficient HeLa; format: cell-based; conditions: vs HeLa control
[3] = system: ATM-deficient HeLa cells; assay: FEN1 inhibitor cytotoxicity, ATM-deficient HeLa; format: cell-based; conditions: vs HeLa control
[4] = system: A2780cis cells; assay: Cell cycle progression, A2780cis; format: cell-based, human; conditions: FEN1i plus cisplatin
Experimental: (§1) with ice cold PBS and fixed in 70% ethanol for 1h at -20°C. After removal of the fixative solution by centrifugation, cells were stained with 2 µg/ml of phospho-Histone (γH2AX) Ser139 (16202A, Millipore, UK) to detect DSBs.
(§2) Cell cycle progression: Cells were treated with 20 µg/ml RNase A (12091021, Invitrogen) and then 10 µg/ml Propidium Iodide (P4170, Sigma Aldrich) was added to determine the cell cycle distribution. The samples were analysed on a Beckman-Coulter FC500 flow cytometer using a 488nm laser for excitation and emission data for PI collected using a 620nm bandpass filter (FL3) and a 525nm bandpass filter (FL1) for FITC-anti-phospho-Histone H2A.X. […]
Graphical representation and statistical analysis was performed in GraphPad Prism 7 (GraphPad, La Jolla, USA).
(§3) 3D Spheroid assays: A2780_control and A2780 FEN1_ KO as well as A2780cis_control and A2780cis FEN1_ KO cells were seeded at 4500 cells/cm2 density in ultra-low attachment 6-well plates (174932, Thermo Fisher Scientific) and cultured in 3D Tumorsphere Medium (C28070, PromoCell, UK) at 37°C in a 5% CO2 atmosphere. Cells were keep in culture for 7-10 days, toping up with fresh medium every two days until spheroids structures were formed.

[5] = system: PEO4 cells; assay: Annexin V apoptosis detection, PEO4; format: cell-based, human; conditions: FEN1i plus cisplatin
Experimental: The samples were analysed on a Beckman-Coulter FC500 flow cytometer using a 488nm laser for excitation and emission data for PI collected using a 620nm bandpass filter (FL3) and a 525nm bandpass filter (FL1) for FITC-anti-phospho-Histone H2A.X.
(§4) Apoptosis detection: Annexin V detection kit (556547, BD Biosciences) was used to quantify apoptotic cells. Briefly, cells were trypsinized, washed with PBS and the cellular pellet was re-suspended in Anexin Binding Buffer (1×). Following, FITC Anexin V and Propidium Iodide were added to the cells. After incubation, Anexin binding Buffer (1×) was added to each tube. All the samples were analysed on a Beckman-Coulter FC500 flow cytometer. The percentage of apoptotic cells was determined (late apoptotic = FITC-Annexin V positive, PI positive early apoptotic = FITC-Annexin V positive, PI negative; live cells = FITC-Annexin V negative, PI negative) and compared for untreated and treated samples. Graphical representation and statistical analysis was performed in GraphPad Prism 7 (GraphPad, La Jolla, USA).
as §3, with “Cells were keep in culture for 7-10 days, toping up with fresh medium every two days until spheroids structures were formed.” left out

[6] = system: PEO1 cells; assay: γH2AX analysis, PEO1; format: cell-based, human; conditions: FEN1i monotherapy
Experimental: (§5) Graphical representation and statistical analysis of mean tail moment was performed in GraphPad Prism 6 (GraphPad, La Jolla, USA). All experiments were done in duplicate three times.
(§6) γH2AX FACS: For monitoring DNA double strand break accumulation by γH2AX FACS, 1.05×104 Cells/cm2 were seeded in 6-well plates and left overnight at 37°C in a 5% CO 2 atmosphere. Cisplatin (5µM) or FEN1i (10µM) was later added to cells and incubated for 24h and 48h at 37°C in a 5% CO2 atmosphere. Cells were collected by trypsinization, washed […]
as §1, §2
(§7) Graphical representation and statistical analysis was performed in GraphPad Prism 7 (GraphPad, La Jolla, USA). […]

[7] = system: PEO1 cells; assay: Annexin V apoptosis detection, PEO1; format: cell-based, human; conditions: FEN1i monotherapy
Experimental: as §4, §3

[8] = system: POLβ KO A2780cis cells; assay: γH2AX analysis, POLβ KO A2780cis; format: cell-based, human; conditions: FEN1i-treated
Experimental: as §5, §6, §1, §2, §7

[9] = system: POLβ KO A2780cis cells; assay: Annexin V apoptosis detection, POLβ KO A2780cis; format: cell-based, human; conditions: FEN1i-treated
Experimental: as §4, §3

Question: How did the “sensitivity to FEN1 inhibitor” value [1] turn out when `Cc1csc2c1c(=O)n(O)c(=O)n2-c1ccccc1` [PTPD, 3-hydroxy-5-methyl-1-phenylthieno [2,3 d]pyrimidine-2,4(1H,3H)-dione] was run?
Answer: more sensitive to FEN1 inhibition

Question: What about the “sensitivity to FEN1 inhibitor” value [2] of the same compound?
Answer: did not observe any increased sensitivity

Question: And the “sensitivity to FEN1 inhibitor” value [3]?
Answer: did not observe increased sensitivity

Question: And the cell cycle effect [4]?
Answer: G2/M cell cycle arrest

Question: And the apoptosis [5]?
Answer: accumulation of apoptotic cells

Question: What about the γH2AX foci [6] of the same compound?
Answer: increased γH2AX foci accumulation

Question: And the apoptosis [7]?
Answer: induction of apoptosis

Question: What about the “DSBs (γH2AX)” value [8] of the same compound?
Answer: increased DSBs

Question: And the apoptosis [9]?
Answer: apoptosis
